Assays:
B16F10 cells = assay: Flow cytometry-based apoptosis detection (sub-G0/G1 DNA content); format: cell-based, murine; conditions: 50 µM, 24 h, propidium iodide; control Sub-G1 4.4%
Method: Figure 2 Psd1 promotes B16F10 live cell membrane permeabilization as monitored by SYTOX Green fluorescence. (A) Psd1 untreated and hydrogen peroxide-treated B16F10 cells. (B) A total of 1.5 × 10^4 B16F10 cells were incubated with 3 or 50 µM Psd1 for 30 min. (C) 1.5 × 10^4 B16F10 cells were incubated with 50 µM Psd1 for 1 h. All experiments were performed at 37 °C. Nucleus staining is shown in green (SYTOXGreen), and mitochondria are shown in red (MitoTracker Red CMXRos). Images are shown at 20× magnification. […] (E) Psd1 induces apoptosis in B16F10 cells. B16F10 cells were treated with 50 µM Psd1 for 24 h and labeled with propidium iodide, and the DNA content was analyzed by flow cytometry for the sub-G0/G1 profile. At least two independent experiments were performed. TEXT PRINTED IN THE PICTURE: (E) Control: Sub-G1: 4.4% | (E) Psd1: Sub-G1: 60.6% (50μM)
B16F10 cells (4 × 10^5 cells) were treated with 50 μM Psd1 for 24 h. After treatment, the cells were trypsinized, centrifuged, and washed twice with phosphate-buffered saline (PBS). The cells were then stained with Nicoletti buffer (0.1% sodium citrate, 0.1% NP-40, 200 μg/mL RNase, and 50 μg/mL propidium iodide). Doublets and debris were identified and excluded. Analysis of the DNA content was performed by collecting 20,000 events using a BD FACSCalibur flow cytometer (BD Biosciences, San Jose, CA, USA). […]

[1] = system: B16F10 melanoma cells in C57BL/6 mice; assay: Experimental B16F10 melanoma lung metastasis, nodule count; format: in vivo; conditions: for Lung nodules: day 21, mean ± SEM
Source text: Figure 6 Protective effects of Psd1 on a model of experimental lung metastasis in vivo. B16F10 mouse melanoma tumors were established by intravenous injection of 2.5 × 10^5 B16F10 cells into C57BL/6 mice. (A) After 21 days, mice from each experimental group were sacrificed, and the number of visible lung metastatic nodules was quantified. Treatment of the animals inoculated with melanoma cells plus Psd1 caused a dose-dependent reduction in the number of lung metastases. Black lines represent the mean ± SEM of two independent experiments analyzed by one-way ANOVA and Bonferroni’s multiple comparison test. **** p < 0.0001 B16F10 vs. phosphate buffer solution (PBS); **** p < 0.0001 B16F10 vs. Psd1 1 mg/kg; **** p < 0.0001 B16F10 vs. just Psd1 1 mg/kg (without B16F10 cells); *** p < 0.001 B16F10 vs. Psd1 3 mg/kg; * p < 0.05 B16F10 vs. Psd1 0.5 mg/kg. (B) Representative images of lung metastatic nodules from animals that received just PBS or B16F10 cells alone or together with 0.1 mg/kg or 1 mg/kg Psd1. Bar = 2 mm. (C) Animal weights were acquired every two days. Weight variation was calculated as (weight on that day (weight of the first day × 100 − 100)). Only the days with higher weight differences between animals injected with only B16F10 cells and those that received cells plus Psd1 or PBS alone are represented. All of the values represent the mean ± SEM of two independent experiments analyzed by two-way ANOVA. *** p < 0.001 B16F10 vs. PBS at […]; *** p < 0.001 B16F10 vs. Psd1 0.1 mg/kg at 9 weeks; ** p < 0.01 B16F10 vs. Psd1 0.1 mg/kg at 13 weeks; *** p < 0.001 B16F10 vs. Psd1 1 mg/kg at 9 and 13 weeks; ** p < 0.01 B16F10 vs. Psd1 1 mg/kg at 17 weeks; * p < 0.05 B16F10 vs. Psd1 1 mg/kg at 7 weeks; *** p < 0.001 B16F10 vs. Psd1 3 mg/kg at 7 and 9 weeks.
Eight-week-old C57BL/6 female mice (CEMIB, Campinas–Brasil) weighing approximately 20 g were individually marked and separated according to their experimental groups. These animals were kept in cages 20 cm × 35 cm × 15 cm (width × length × height) with free access to water and food under day and night cycles that lasted twelve hours with a controlled temperature (20–25 °C) in our own facilities. This study was approved by the Ethics Committee on the Use of Animals of Health Science Centre of the Federal University of Rio de Janeiro, Brazil (CEUA/CCS/UFRJ, CONCEA registered number 01200.001568/2013.87, approved protocol IBCCF 163 at 28 August 2012). All animals received humane care in compliance with the “Principles of Laboratory Animal Care” formulated by the National Society for Medical Research and the “Guide for the Care and Use of Laboratory Animals” prepared by the National Academy of Sciences, USA, and the National Council for Controlling Animal Experimentation, Ministry of Science, Technology and Innovation (CONCEA/MCTI), Brazil.
Mice were injected via the lateral tail vein with 100 µL of PBS only (137 mM NaCl, 2.7 mM KCl, 10 mM Na2HPO4, 2 mM KH2PO4, pH 7.4) (n = 17) or 100 µL of B16F10 cells (2.5 × 10^5 cells/animal suspended in DMEM) (n = 15). Other groups of animals were intravenously co-injected with a freshly prepared, in order to avoid B16F10 cells death, mix of B16F10 cells plus 0.1 mg/kg (n = 8), 0.5 mg/kg (n = 8), 1 mg/kg (n = 17), or 3 mg/kg Psd1 (n = 7).
Another group of animals received 1 mg/kg of Psd1 only (n = 9) to evaluate Psd1 toxicity. Twenty-one days later, the animals were anaesthetized and sacrificed, and the black lung melanoma nodules were counted and measured under a dissecting microscope (Zeiss AxioPhot fluorescence microscope (Carl-Zeiss, Oberkochen, Germany)).

[2] = system: R8 (rat lymphocyte) cells; assay: LDH release cell viability, healthy R8 cells; format: cell-based; conditions: 30 µM, 3 h (6 µM not tested)

Question: “Psd1: 46-amino acid residue plant defensin isolated from pea seeds, expressed in Pichia pastoris (PDB 1JKZ) (KTCEHLADTYRGVCFTNASCDDHCKNKAHLISGTCHNWKCFCTQNC)” was tested. Which “Sub-G0/G1 (sub-G1) cells” value (B16F10 cells) did it give?
Answer: 60.6%

Question: What about the “Number of lung nodules, result in words” value ([1]; 0.1 mg/kg i.v., day 21) of the same substance?
Answer: not effective in reducing the number of nodules

Question: What about the “Size of lung nodules, result in words” value ([1]; 0.1 mg/kg i.v., day 21, data not shown) of the same substance?
Answer: effective in reducing their size

Question: What about the Lung nodules ([1]; 0.5 mg/kg i.v. co-injected with B16F10 cells, B16F10 only average 43 nodules, p < 0.05) of the same substance?
Answer: 10.2 ± 2.6 nodules

Question: And the “Decrease of number of pulmonary nodules” value ([1]; 0.5 mg/kg i.v., day 21)?
Answer: 75%

Question: And the “Lung nodules in animals without B16F10 cells” value ([1]; 1.0 mg/kg Psd1 alone, i.v., day 21)?
Answer: did not present lung nodules

Question: What about the Lung nodules ([1]; 1.0 mg/kg i.v. co-injected with B16F10 cells, p < 0.0001) of the same substance?
Answer: 4.82 ± 1.88 nodules

Question: What about the “Decrease of number of pulmonary nodules” value ([1]; 1.0 mg/kg i.v., day 21) of the same substance?
Answer: 88%

Question: What about the Lung nodules ([1]; 3.0 mg/kg i.v. co-injected with B16F10 cells, p < 0.001) of the same substance?
Answer: 0.14 ± 0.14 nodules

Question: And the “Tumor development, result in words” value ([1]; 3.0 mg/kg i.v., day 21)?
Answer: completely abolished tumor development

Question: What about the “Lung metastasis nodules, result in words” value ([1]; i.v., above 0.5 mg/kg) of the same substance?
Answer: completely inhibited the formation of B16F10 lung metastasis nodules

Question: And the “Lowest dose with significant reduction of lung metastasis colonization” value ([1]; i.v., day 21, dose-dependent)?
Answer: 0.5 mg/kg

Question: What about the “R8 cell viability (LDH release)” value [2] of the same substance?
Answer: no alteration in cell viability

From article PMC7219108, “Pisum sativum Defensin 1 Eradicates Mouse Metastatic Lung Nodules from B16F10 Melanoma Cells” (International Journal of Molecular Sciences, 2020)
